# Values quoted from earlier work, collected in paper PMC5879685 (Proceedings of the National Academy of Sciences of the …, 2018).
Structure (SMILES),Effect on PKG (PKG),Effect on CNGC (CNGC)
"Nc1nc2c(ncn2[C@@H]2O[C@@H]3COP(O)(=S)O[C@H]3[C@H]2O)c(=O)[nH]1 (single isomer, unassigned) [B, Guanosine-3′,5′-cyclic monophosphorothioate, RP-isomer]",−,+
"Nc1nc2c(nc(Br)n2[C@@H]2O[C@@H]3COP(O)(=S)O[C@H]3[C@H]2O)c(=O)[nH]1 (single isomer, unassigned) [C, 8-bromoguanosine-3′,5′-cyclic monophosphorothioate, RP-isomer]",−,+
"Nc1nc2c(ncn2[C@@H]2O[C@@H]3COP(=O)(O)O[C@H]3[C@H]2O)c(=O)[nH]1 [Compound A, Guanosine-3′,5′-cyclic monophosphate]",+,+
